Data published in patent publication US9340505B2, “Type III secretion inhibitors, analogs and uses thereof” (priority 2007, dated 2016).
Entries after “also recorded” stand apart in the source; their conditions may differ. Read-outs that look alike come from different tables or passages of the source.

Key:
[1] = tested on: bacterial T3S; conditions: cited from earlier work
[2] = tested on: T3S mediated cytotoxic response of HeLa cells infected by Y. pestis
[3] = tested on: YopE-B1a secretion; assay: microbe, parasite or virus in culture; type: cell-based, Y. pestis; conditions: for IC50 / inhibition at 60 µM: Yersinia pestis
[4] = tested on: YopH secretion; type: cell-based, Y. pestis
[5] = tested on: HeLa cells; assay: Cytotoxicity of compounds, Lactate Dehydrogenase (LDH) assay; conditions: 60 μM
[6] = tested on: YopE-B1a translocation to HeLa cells; assay: cells; type: cell-based, Y. pestis
[7] = tested on: secretion of Yops; type: cell-based, Y. pestis
[8] = tested on: Y. pestis; type: cell-based
[9] = tested on: Y. pestis JG401; type: cell-based
[10] = tested on: T3S; conditions: read-out: IC50 as T3S inhibitor in Y. pseudotuberculosis; cited from earlier work
[11] = read-out: IC50 (μM) of YopE secretion, round 3 lead 1 analogs
[12] = read-out: IC50 of YopE secretion (Table 13)
[13] = read-out: Mean Inhibition (%) (3rd round compound 3 analogs)

## CCCCCCCCC[C@H](CCCCCCCC(C)=O)O[C@@H]1O[C@H](CO)[C@@H](O)[C@H](O)[C@H]1O[C@@H]1O[C@H](CO[C@@H]2O[C@H](C)[C@H](O)[C@H](O)[C@@H]2O)[C@@H](OC(C)=O)[C@H](OC(=O)CCC)[C@H]1O[C@@H]1O[C@@H](C)[C@H](O)[C@@H](O)[C@@H]1O [Caminoside A]
[1]
  activity in screen for bacterial T3S inhibitors: potent activity

## Cl.O=C(Nc1cccc(Cl)c1)Nc1cccc(C2=NCCN2)c1 [Compound 1, 1-(3-chlorophenyl)-3-(3-(4,5-dihydro-1H-imidazol-2-yl)phenyl) urea hydrochloride]
[2]
  inhibition of T3S mediated cytotoxic response (morphological change): inhibited the cytotoxic response

## Cc1ccc(CSc2nc(C(=O)O)ccc2C#N)cc1 [Compound 1, 2-Pyridinecarboxylic acid, 5-cyano-6-[[(4-methylphenyl)methyl]thio]-]
[3]; [11]
  IC50: < 15 µM
[3]; [12]
  IC50: > 60 µM

## Oc1ccc(Oc2ccc(O)cc2)cc1 [Compound 2-3]
[4]
  activity against YopH secretion (in words): showed activity
  concentration dependent T3S inhibition (in words): retained inhibitory activity
[5]
  cytotoxicity of analogs to HeLa cells (in words): significant decrease in cytotoxicity; also recorded: overcame the cytotoxicity

## Nc1cc(Oc2ccc(O)c(N)c2)ccc1O [Compound 2-4]
[5]
  cytotoxicity of analogs to HeLa cells (in words): significant decrease in cytotoxicity

## CCC(=O)O.CCC(=O)O.O=C(Nc1cccc(C2=NCCN2)c1)Nc1cccc(C2=NCCN2)c1 [Compound 3 dipropionate, propanoic acid, compd. with N,N′-bis[3-(4,5-dihydro-1H-imidazol-2-yl)phenyl]urea (2:1)]
[6]; 80 μM
  inhibition of YopE-B1a translocation (in words): completely inhibited
[6]; Yersinia pestis, HeLa, 40 μM
  inhibition at 40 µM: 50%

## Cl.N#Cc1cccc(NC(=O)Nc2cccc(C3=NCCN3)c2)c1 [Compound 3]
[2]
  inhibition of T3S mediated cytotoxic response (morphological change): inhibited the cytotoxic response

## CC(=O)c1ccc(NC(=O)Nc2cccc(C3=NCCN3)c2)cc1.Cl [Compound 4, 1-(4-acetylphenyl)-3-(3-(4,5-dihydro-1H-imidazol-2-yl)phenyl)urea hydrochloride]
[2]
  inhibition of T3S mediated cytotoxic response (morphological change): inhibited the cytotoxic response

## Cc1ccc(-c2nn(-c3ccccc3)cc2C2CC(c3cccs3)=NN2C(=O)CCC(=O)O)cc1 (centres unmarked) [Compound 4-5]
[4]
  activity against YopH secretion (in words): showed activity

## Cc1ccc(-c2nn(-c3ccccc3)cc2C2CC(c3ccccc3)=NN2C(=O)CCC(=O)O)cc1 (centres unmarked) [Compound 4-6]
[4]
  activity against YopH secretion (in words): showed activity

## O=C(N/N=C/c1cc(Br)cc(Br)c1O)c1ccc([N+](=O)[O-])cc1 [INP0007]
[7]
  inhibition of secretion of Yops (in words): inhibited secretion of Yops
[8]
  inhibition of Y. pestis growth: completely inhibited
[9]
  promotion of Y. pestis growth at 37° C. in the absence of Ca2+: did not promote the growth
[10]
  IC50: 50 µM

## N#Cc1ccc(C(=O)O)nc1SCc1ccc(Cl)cc1 [MC1_1-1, 6-(4-chlorobenzylthio)-5-cyanopicolinic acid]
[3]; [12]
  IC50: 20 µM

## N#Cc1ccc(C(=O)O)nc1SCc1ccccc1 [MC1_1-2, 6-(benzylthio)-5-cyanopicolinic acid]
[3]; [12]
  IC50: 60 µM

## COc1ccc(CSc2nc(C(=O)O)ccc2C#N)cc1 [MC1_1-3, 5-cyano-6-(4-methoxybenzylthio) picolinic acid]
[3]; [12]
  IC50: > 60 µM

## N#Cc1ccc(C(=O)O)nc1SCc1cccc([N+](=O)[O-])c1 [MC1_1-4, 5-cyano-6-(3-nitrobenzylthio) picolinic acid]
[3]; [12]
  IC50: > 60 µM

## N#Cc1ccc(C(=O)O)nc1SCc1ccccc1Cl [MC1_1-5, 6-(2-chlorobenzylthio)-5-cyanopicolinic acid]
[3]; [12]
  IC50: ≥ 60 µM

## N#Cc1ccc(C(=O)O)nc1SCc1ccc(C(F)(F)F)cc1 [MC1_1-8]
[3]; [12]
  IC50: 55 µM

## N#Cc1ccc(C(=O)O)nc1SCc1ccc(OC(F)(F)F)cc1 [MC1_1-9, 5-cyano-6-(4-(trifluoromethoxy)benzylthio) picolinic acid]
[3]; [12]
  IC50: 30 µM

## N#Cc1ccc(C(=O)O)nc1Sc1ccc(Cl)cc1 [MC1_2-3, 6-(4-chlorophenylthio)-5-cyanopicolinic acid]
[3]; read-out: IC50 (μM) of YopE secretion, 2nd round compound 1 analogs
  IC50: < 15 µM
[3]; 60 μM, read-out: Mean Inhibition (%) of YopE-B1a secretion (Table 14)
  inhibition at 60 µM: 95.9%
[3]; 60 μM, read-out: inhibition on YopE-B1a secretion
  inhibition at 60 µM: ~95%

## CNC(=O)c1ccc(C#N)c(SCc2ccc(Cl)cc2)n1 [MC1_3-1]
[3]
  inhibitory activity on YopE-B1a secretion (in words): showed inhibitory activity
[3]; [11]
  IC50: < 15 µM

## COC(=O)c1ccc(C#N)c(SCc2ccc(Cl)cc2)n1 [MC1_3-2]
[3]
  inhibitory activity on YopE-B1a secretion (in words): showed inhibitory activity
[3]; [11]
  IC50: 20 ± 5 µM

## N#Cc1ccc(C(N)=O)nc1SCc1ccc(Cl)cc1 [MC1_3-3]
[3]
  inhibitory activity on YopE-B1a secretion (in words): showed inhibitory activity
[3]; [11]
  IC50: 50 ± 5 µM

## O=C(Nc1cccc(C2=NCCN2)c1)Nc1cccc([N+](=O)[O-])c1 [MC3_1-2]
[4]
  activity against YopH secretion (in words): showed inhibition
  concentration dependent T3S inhibition (in words): concentration dependent inhibitory activities

## N#Cc1cccc(NC(=O)Nc2cccc(C3=NCCN3)c2)c1 [MC3_1-3]
[4]
  concentration dependent T3S inhibition (in words): concentration dependent inhibitory activities

## O=C(Nc1cccc(C2=NCCN2)c1)Nc1cccc(C(F)(F)F)c1 [MC3_1-9]
[4]
  concentration dependent T3S inhibition (in words): concentration dependent inhibitory activities

## O=C(Nc1cccc(Br)c1)Nc1cccc(C2=NCCN2)c1 [MC3_1-10]
[4]
  concentration dependent T3S inhibition (in words): concentration dependent inhibitory activities

## O=C(Nc1cccc(Cl)c1)Nc1cccc(C2=NCCN2)c1 [MC3_1-16]
[4]
  concentration dependent T3S inhibition (in words): concentration dependent inhibitory activities

## FC(F)(F)c1cc(Nc2nc3cc(C4=NCCN4)ccc3o2)ccc1Cl [MC3_3-1]
[3]; [13]
  inhibition at 60 µM: 69.8%

## FC(F)(F)c1cc(Nc2nc3cc(C4=NCCCN4)ccc3o2)ccc1Cl [MC3_3-2]
[3]; [13]
  inhibition at 60 µM: 49%

## FC(F)(F)c1cc(Nc2nc3ccc(C4=NCCN4)cc3o2)ccc1Cl [MC3_3-3]
[3]; [13]
  inhibition at 60 µM: 103%

## FC(F)(F)c1cc(Nc2nc3ccc(C4=NCCN4)cc3[nH]2)ccc1Cl [MC3_3-4]
[3]; [13]
  inhibition at 60 µM: 0%
